Patent publication US20150196668A1, “NANOMEDICINES FOR EARLY NERVE REPAIR” (Purdue Research Foundation, priority 2011, published 2015)

Assays:
[1] = tested on: primary neuron and glia cells; test: LDH release from glutamate challenged primary neuron and glia cells; format: cell-based
Protocol: FIGS. 36A-B show rescue of glutamate challenged primary neuron and glia cells as measured by LDH release. Studies with glutamate challenged primary neuron and glial cells show efficacy of GC-MP/MP and GCMP at high concentrations and GC-MP/MP at low concentrations (FIG. 36A). MPHS is beneficial at lower concentrations. LDH release from glutamate challenged (100 umol) primary neuron and glial cells treated with GC, GC-MP, GC-MP/MP (all 1 mg/ml) and MPHS (250 ug/ml) (FIG. 36B).

PC12 cell = test: H2O2-induced PC12 cell injury model, apoptosis (Example 1); format: cell-based

Structure (SMILES)	rescue of glutamate challenged cells, LDH release ([1]; 16 hours, GC, GC-MP, GC-MP/MP 1 mg/ml, MPHS 250 ug/ml, glutamate 100 umol)	rescue of glutamate challenged cells at low concentrations ([1]; FIG. 36A)	reducing cell apoptosis (PC12 cell)
C[C@H]1C[C@@H]2[C@H]([C@@H](O)C[C@@]3(C)[C@H]2CC[C@]3(O)C(=O)COC(=O)CCC(=O)O)[C@@]2(C)C=CC(=O)C=C12 [MPHS, methylprednisolone hemisuccinate]	not significant	beneficial	–
COc1cc(/C=C/C(=O)CC(=O)/C=C/c2ccc(O)c(OC)c2)ccc1O [curcumin]	–	–	effective in reducing cell apoptosis
